# Measured values from patent US20190119282A1, “IMIDAZOPYRIDAZINES USEFUL AS INHIBITORS OF THE PAR-2 SIGNALING PATHWAY” (Vertex Pharmaceuticals Incorporated, priority 2013, published 2019).
# pIC50: −log10 of the molar value.
# How the values were obtained:
# [1] = biological target: T1, PAR2 (HT-29 cells, SLIGKV activation) (Homo sapiens, UniProt P55085); assay: Ca FLIPR TETRA assay, ANTAGONIST mode, stimulation with 8 μM SLIGKV; format: cell-based; conditions: for pIC50: HT-29 cells; for SLIGKV % @ concentration: @ 1.9 (μM)
# T1 construct: host or cells: HT-29 cells
# T1 sequence (P55085 26-397): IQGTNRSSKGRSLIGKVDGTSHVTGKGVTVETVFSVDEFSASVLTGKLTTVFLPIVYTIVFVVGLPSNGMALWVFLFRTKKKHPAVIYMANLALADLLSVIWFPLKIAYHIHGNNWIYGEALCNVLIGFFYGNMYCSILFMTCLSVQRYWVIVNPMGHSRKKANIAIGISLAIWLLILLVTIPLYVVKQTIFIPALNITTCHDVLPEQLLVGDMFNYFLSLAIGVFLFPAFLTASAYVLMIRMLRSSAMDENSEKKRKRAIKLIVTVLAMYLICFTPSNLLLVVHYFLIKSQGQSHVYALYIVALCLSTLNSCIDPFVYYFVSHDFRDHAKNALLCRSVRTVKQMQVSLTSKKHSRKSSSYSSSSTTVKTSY
# Procedure: (§1) Example 60: Protocol for Testing PAR2 Compounds in ANTAGONIST Mode Using the Ca FLIPR^TETRA Assay (384 Well)
# (§2) 23000 HT-29 cells (ATCC# HTB-38) were plated in 384-well black, transparent-flat bottom plates and incubated in 25 uL of 1% FBS/McCoy's media ON at 37° C. under an atmosphere of 5% CO2. The following day, 25 uL FLIPR calcium 5 Molecular Devices assay reagent (Cat: R-8186) was added. Plates were incubated at 37° C. and r. t. for 45 min and 15 min, respectively. Compounds dilutions were prepared in 100% DMSO using a Biomek FX and diluted 20-fold in HBSS and then 5.5 uL was added directly to the cells by the FLIPR^TETRA (10× dilution) using FLIPR Tetra Pipette tips, black, non-sterile, 384 Molecular Devices (Cat: 9000-0764).
# (§3) A first read was performed to determine whether the test compounds on their own can activate Ca2+ responses.
# (§4) The cells were incubated with the compounds for 30 min at r. t. and then read in ANTAGONIST mode in the same plate by stimulating with 6.2 uL of a fixed concentration of the activator: final concentrations: 8 μM SLIGKV, 1 U/mL Thrombin, 3.1 U/mL trypsin, or 0.6 μM UTP.
# [2] = test system: Thrombin-stimulated Ca2+ response in HT-29 cells; assay: Ca FLIPR TETRA assay, ANTAGONIST mode, stimulation with 1 U/mL Thrombin; format: cell-based, human; conditions: HT-29 cells, stimulation with 1 U/mL Thrombin
# Procedure: as §1, §2, §3, §4
# [3] = test system: UTP-stimulated Ca2+ response in HT-29 cells; assay: Ca FLIPR TETRA assay, ANTAGONIST mode, stimulation with 0.6 μM UTP; format: cell-based, human; conditions: for pIC50: Homo sapiens, HT-29 cells, stimulation with 0.6 μM UTP
# Procedure: as §1, §2, §3, §4
# [4] = biological target: T2, PAR2 (HT-29 cells, trypsin activation) (Homo sapiens, UniProt P55085); assay: Ca FLIPR TETRA assay, ANTAGONIST mode, stimulation with 3.1 U/mL trypsin; format: cell-based; conditions: HT-29 cells
# T2 construct: host or cells: HT-29 cells
# T2 sequence (P55085 26-397): T1 sequence (P55085 26-397)
# Procedure: as §1, §2, §3, §4
# [5] = antagonist mode, stimulation with 8 μM SLIGKV
# [6] = antagonist mode, stimulation with 3.1 U/mL trypsin
Structure (SMILES),pIC50 ([2]; Homo sapiens),"pIC50 ([1]; Table 6, 8 μM SLIGKV)","pIC50 ([4]; Table 6, 3.1 U/mL trypsin)",further results
"O=C(c1cn2nc(-c3ccc(F)cc3)cc(C(F)(F)F)c2n1)N1CCCCCC1 [Compound I-7, Azepan-1-yl-[6-(4-fluorophenyl)-8-(trifluoromethyl)imidazo[1,2-b]pyridazine-2-yl]methanone]",< 4.30,–,–,pIC50 ([1]; stimulation with 8 μM SLIGKV): 7.05; pIC50 [3]: < 4.30
CCOC1CCN(C(=O)c2cn3nc(-c4ccc(F)cc4)cc(C(F)(F)F)c3n2)CC1 [Compound I-48],< 4.30,–,–,SLIGKV % @ concentration [1]: 51% @ 1.9; pIC50 [3]: < 4.30
O=C1NCCN2CCN(C(=O)c3cn4nc(-c5ccc(F)cc5)cc(C(F)(F)F)c4n3)CC12 (stereo not shown) [Compound I-58],< 4.30,–,–,pIC50 ([1]; stimulation with 8 μM SLIGKV): 5.89; pIC50 [3]: < 4.30
C[C@H]1CCCCN1C(=O)c1cn2nc(-c3ccc(F)cc3)cc(C(F)(F)F)c2n1 [Compound I-65],< 4.30,–,–,SLIGKV % @ concentration [1]: 56% @ 1.9; pIC50 [3]: < 4.30
O=C(c1cn2nc(-c3ccc(F)cc3)cc(C(F)(F)F)c2n1)N1CCCCC1c1nccs1 (stereo not shown) [Compound I-73],5.77,–,–,pIC50 ([1]; stimulation with 8 μM SLIGKV): 6.13; pIC50 ([4]; stimulation with 3.1 U/mL trypsin): 6.04
CC(C)(C)OC(=O)NC1CCN(C(=O)c2cn3nc(-c4ccc(F)cc4)cc(C(F)(F)F)c3n2)CC1 [Compound I-74],< 4.30,–,–,pIC50 ([1]; stimulation with 8 μM SLIGKV): 6.32; UTP % @ concentration ([3]; @ 50 (μM)): 62% @ 50
CN(C(=O)OC(C)(C)C)C1CCN(C(=O)c2cn3nc(-c4ccc(F)cc4)cc(C(F)(F)F)c3n2)CC1 [Compound I-77],< 4.30,–,–,pIC50 ([1]; stimulation with 8 μM SLIGKV): 6.17; pIC50 [3]: < 4.30
"CC(C)(C)c1cc(-c2ccc(F)cc2)nn2cc(C(=O)N3CCC(O)CC3(C)C)nc12 (stereo not shown) [Compound I-484, (8-(tert-butyl)-6-(4-fluorophenyl)imidazo[1,2-b]pyridazin-2-yl)(4-hydroxy-2,2-dimethylpiperidin-1-yl)methanone]",–,–,–,"pIC50 [1, 5]: 8.55; pIC50 [4, 6]: 8.02; pIC50 ([2]; Homo sapiens, antagonist mode): < 6.00"
COC(=O)C1CC(C(=O)N2CCN(C(=O)c3cn4nc(-c5ccc(F)cc5)cc(C(C)(C)C)c4n3)C(C)(C)C2)C1 (stereo not shown) [Compound I-538],–,–,–,"pIC50 [1, 5]: 9.10; pIC50 [4, 6]: 9.05; pIC50 ([2]; antagonist mode): < 6.00"

# Now from value to compound, other results behind:
pIC50 ([2]; Homo sapiens),"pIC50 ([1]; Table 6, 8 μM SLIGKV)","pIC50 ([4]; Table 6, 3.1 U/mL trypsin)",Structure (SMILES),further results
–,4.64,–,C[C@H]1CN(C(=O)c2cn3nc(-c4ccc(F)cc4)c(C(F)(F)F)cc3n2)CCN1C(=O)OCc1ccccc1 [Compound I-580],"Trypsin % @ 50 ([4]; Table 6, @ 50 (μM), 3.1 U/mL trypsin): 48% @ 50"
–,4.30,4.34,O=C(c1cn2nc(-c3ccc(F)cc3)cc(C(F)(F)F)c2n1)N1CCN(Cc2ccccn2)CC1 [Compound I-581],–
–,4.30,< 4.30,N#Cc1cccnc1N1CCN(C(=O)c2cn3nc(-c4ccc(F)cc4)cc(C(F)(F)F)c3n2)CC1 [Compound I-582],–
–,4.64,< 4.30,O=C(c1cn2nc(-c3ccc(F)cc3)cc(C(F)(F)F)c2n1)N1CCN(CCn2ccnc2)CC1 [Compound I-583],–
–,4.66,5.70,CCC(=O)N1CCN(C(=O)c2cn3nc(-c4ccc(F)cc4)cc(C(F)(F)F)c3n2)CC1 [Compound I-584],–
–,4.57,4.62,Cc1cc(-c2ccc(F)cc2)nn2cc(C(=O)N3CCC4(COC4)C3)nc12 [Compound I-585],–
–,4.89,4.72,Cc1cc(-c2ccc(F)cc2)nn2cc(C(=O)N3CCCC4(COC4)C3)nc12 [Compound I-586],–
–,4.60,4.72,CC(C)c1cc(-c2ccc(F)cc2)nn2cc(C(=O)N3CCCCC34COC4)nc12 [Compound I-587],–
–,4.43,< 4.30,CC(C)c1cc(Cl)nn2cc(C(=O)N3CCN(C(=O)C4(O)CCOCC4)CC3(C)C)nc12 [Compound I-588],–
–,4.57,< 4.30,CC(C)c1cc(Cl)nn2cc(C(=O)N3CCN(C(=O)C4(O)CCC4)CC3(C)C)nc12 [Compound I-589],–
–,4.70,< 4.30,CC(C)c1cc(C2CCOCC2)nn2cc(C(=O)N3CCN(C(=O)C4(O)CCC4)CC3(C)C)nc12 [Compound I-590],–
